{
  "source": "the supplement of paper PMC10307832",
  "experiment_in_all_cases": "relative viability (nuclei count vs DMSO), 5 days (fraction); higher = more cells survive",
  "key": {"[1]": {"compound": "CC(C)N(CCCNC(=O)Nc1ccc(C(C)(C)C)cc1)C[C@H]1O[C@@H](n2ccc3c(N)ncnc32)[C@H](O)[C@@H]1O + C[C@]1(O)C[C@@H](c2nc(-c3ccc4ccc(-c5ccccc5)nc4c3)c3c(N)nccn32)C1 [Linsitinib] (partner 1 µM)", "method_in_brief": "(§1)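 Five library-drug doses in √10 steps were combined with a fixed anchor-drug dose, or a single drug was given alone, by pin tool to lung cancer cell lines in 1536-well plates the day after seeding. Nuclei were stained and counted after 5 days. Relative viability is the nuclei count in treated wells over that in vehicle wells, taken as the median of duplicate plates.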"}, "Shikonin + Alpelisib": {"compound": "CC(C)=CC[C@@H](O)C1=CC(=O)c2c(O)ccc(O)c2C1=O [Shikonin] + Cc1nc(NC(=O)N2CCC[C@H]2C(N)=O)sc1-c1ccnc(C(C)(C)C(F)(F)F)c1 [Alpelisib] (partner 2 µM)", "method_in_brief": "as §1"}, "Shikonin + Vorinostat": {"compound": "CC(C)=CC[C@@H](O)C1=CC(=O)c2c(O)ccc(O)c2C1=O [Shikonin] + O=C(CCCCCCC(=O)Nc1ccccc1)NO [Vorinostat] (partner 1 µM)", "method_in_brief": "as §1"}, "[2]": {"compound": "CC(C)N(CCCNC(=O)Nc1ccc(C(C)(C)C)cc1)C[C@H]1O[C@@H](n2ccc3c(N)ncnc32)[C@H](O)[C@@H]1O + Cc1nc(Nc2ncc(C(=O)Nc3c(C)cccc3Cl)s2)cc(N2CCN(CCO)CC2)n1 [Dasatinib] (partner 0.075 µM)", "method_in_brief": "as §1"}},
  "data": [
    {"cell line": "UMC-11", "values": [
      {"measurement": "relative viability", "setting": "[1]; first compound 0.08 µM", "value": 0.953},
      {"measurement": "relative viability", "setting": "[1]; first compound 0.253 µM", "value": 0.96},
      {"measurement": "relative viability", "setting": "[1]; first compound 0.8 µM", "value": 1.07},
      {"measurement": "relative viability", "setting": "[1]; first compound 2.53 µM", "value": 1.02},
      {"measurement": "relative viability", "setting": "[1]; first compound 8 µM", "value": 0.889},
      {"measurement": "relative viability", "setting": "Shikonin + Alpelisib; first compound 0.01 µM", "value": 0.875},
      {"measurement": "relative viability", "setting": "Shikonin + Alpelisib; first compound 0.1 µM", "value": 1.08},
      {"measurement": "relative viability", "setting": "Shikonin + Alpelisib; first compound 0.3162 µM", "value": 0.996},
      {"measurement": "relative viability", "setting": "Shikonin + Alpelisib; first compound 1 µM", "value": 1.18},
      {"measurement": "relative viability", "setting": "Shikonin + Vorinostat; first compound 0.01 µM", "value": 0.322},
      {"measurement": "relative viability", "setting": "Shikonin + Vorinostat; first compound 0.1 µM", "value": 0.34},
      {"measurement": "relative viability", "setting": "Shikonin + Vorinostat; first compound 0.3162 µM", "value": 0.415},
      {"measurement": "relative viability", "setting": "Shikonin + Vorinostat; first compound 1 µM", "value": 0.396},
      {"measurement": "relative viability", "setting": "[2]; first compound 0.08 µM", "value": 0.461},
      {"measurement": "relative viability", "setting": "[2]; first compound 0.253 µM", "value": 0.422},
      {"measurement": "relative viability", "setting": "[2]; first compound 0.8 µM", "value": 0.436},
      {"measurement": "relative viability", "setting": "[2]; first compound 2.53 µM", "value": 0.486},
      {"measurement": "relative viability", "setting": "[2]; first compound 8 µM", "value": 0.492}
    ]}
  ]
}
